# Experimental data taken from patent US6218378A, “Anti-tumor agents comprising pyridyl-substituted metal-diphosphine complex” (priority 1994, dated 2001).
# Like-named read-outs stand apart in the source and are kept apart here.
# Tests used:
# [1] = system: 41M-cisR; conditions: data from Kelland et al., 1992; cited from earlier work
# [2] = system: Rhodamine 123 uptake; conditions: cells treated with cisplatin; cited from earlier work
# [3] = system: 41M; conditions: data from Kelland et al., 1992; cited from earlier work
# [4] = system: SKOV-3; conditions: data from McKeage et al., 1994; cited from earlier work
# [5] = system: CH1-cisR; conditions: data from Kelland et al., 1992; cited from earlier work
# [6] = system: HeLa; conditions: ID37 data from Ying Dong et al. submitted for publication; cited from earlier work
# [7] = system: JAM; conditions: ID37 data from Ying Dong et al. submitted for publication; cited from earlier work
# [8] = system: CI-80-13S; conditions: ID37 data from Ying Dong et al. submitted for publication; cited from earlier work
# [9] = system: CH1; conditions: data from Kelland et al., 1992; cited from earlier work
# [10] = system: HeLa-S1a; conditions: ID37 data from Ying Dong et al. submitted for publication; cited from earlier work
# [11] = system: 41M-cisR; experiment: cytotoxicity assay, sulforhodamine B; type: cell-based, human; conditions: Homo sapiens, 41McisR, 96 hrs, mean ± SD or individual values when n<3
# Experimental: (§1) In Table 2, reference is made to cell lines 41M, 41M-cisR, SKOV-3, CH1 and CH1-cisR.
# (§2) J. Cancer 69 1-7. The characteristics of the cell line pairs CH1/CH1 cisR, 41M/41McisR and 41M/SKOV3 are described in Table 3.
# (§3) The cytotoxicity assay used sulforhodamine B which stains the basic amino acids. Cells (5000 or 2500 for SKOV-3) were seeded into 96 well microtitre plates (Linbro, Flow Laboratories Inc., USA) in 0.1 ml of medium. After an overnight incubation, the metal phosphine compounds were dissolved in 0.9% NaCl or ethanol and diluted with medium, were added at concentrations ranging from 0.005 to 50 μM to quadruplicate wells. After 96 hrs incubation, the medium was removed and cells were fixed in 0.2 ml of cold 10% (w/v) trichloroacetic acid (May & Baker Ltd., Dagenham, England) for 30 mins at 4° C. The plates were washed five times with tap water. Then 0.1 ml of 0.4% (w/v) sulforhodamine B (Sigma Chemical Co., St. Louis, USA) dissolved in 1% acetic acid (Ajax Chemicals, Australia) was added to the wells and left to stand at room temperature for 15 mins. The plates were then washed five times with 1% acetic acid and left to dry overnight. The next morning, 0.1 ml of 10 mM Tris buffer (Sigma Chemical Co., St. Louis, USA) was then added to each plate to solubilise the dye. Absorbance was read at a wavelength of 570 nm using a 96 well plate reader Dynatech MR 5000 plate reader. Absorbance of treatment cells was expressed as a percentage of positive (drug-free) controls. The results were plotted as percentage growth versus drug concentration.
# [12] = system: SKOV-3; experiment: cytotoxicity assay, sulforhodamine B; type: cell-based, human; conditions: Homo sapiens, SK-OV-3, 96 hrs, mean ± SD or individual values when n<3
# Experimental: as §1, §2, §3
# [13] = system: 41M; experiment: cytotoxicity assay, sulforhodamine B; type: cell-based, human; conditions: Homo sapiens, 96 hrs, mean ± SD or individual values when n<3
# Experimental: as §1, §2, §3
# [14] = system: CH1; experiment: cytotoxicity assay, sulforhodamine B; type: cell-based, human; conditions: Homo sapiens, 96 hrs, mean ± SD or individual values when n<3
# Experimental: as §1, §2, §3
# [15] = system: CH1-cisR; experiment: cytotoxicity assay, sulforhodamine B; type: cell-based, human; conditions: Homo sapiens, CH1cisR, 96 hrs, mean ± SD or individual values when n<3
# Experimental: as §1, §2, §3
# [16] = system: 41M, 41M-cisR, SKOV-3, CH1, CH1-cisR; experiment: growth inhibition of cisplatin-sensitive and -resistant ovarian cancer cell lines (Table 2, FIG. 5); type: cell-based, human; conditions: 41M/41M-cisR and CH1/CH1-cisR pairs
# Source text: (§4) The sensitive CH1 cell line was established from a patient with drug-sensitive disease and its resistant variant (CH1-cisR) was generated by prolonged in vitro exposure to cisplatin during which it acquired more efficient DNA repair as described in Kelland et al., 1992, Cancer Research 52 3857-3864. The sensitive 41M cell line was also established from a patient with a sensitive tumor and its resistant variant (41M-cisR) was generated in the same way but acquired decreased uptake across the cell membrane (Kelland et al., 1992, supra). The intrinsically-resistant SKOV-3 ovarian carcinoma cell line has high glutathione levels as described in Mistry et al., 1991, Brit. J. Cancer 64 215-220 and reduced levels of bi-functional cisplatin-DNA lesions as described in McKeage et al., 1994, Brit. J. Cancer 69 1-7. The characteristics of the cell line pairs CH1/CH1 cisR, 41M/41McisR and 41M/SKOV3 are described in Table 3.
# as §3, with “concentration. The drug concentration resulting in a 50% growth inhibition was termed the IC50. The passage numbers used for the cytotoxicity assay from each cell line were, CH1 passages 50-58, CH1 cis-R passages 77-83, 41M passages 50-63, 41M cisR 81-92 and SKOV-3 passages 106-128.” for “concentration.”
# [17] = system: mitochondria of carcinoma derived cells; conditions: carcinoma derived versus untransformed cells; cited from earlier work
# [18] = from Chen in Cancer Cells 1; cited from earlier work
# [19] = system: DNA in tumour cells; conditions: cited from earlier work
# [20] = system: human tumour cell lines; experiment: selectivity of cytotoxicity over all cell lines evaluated (Tables 1 and 2); type: cell-based
# Source text: The origins of the human melanoma cell line MM96 has been described in Whitehead et al., 1973, Pigment Cell 1 383-389. The cell line JAM is described in Ward et al., 1987, Cancer Res. 47 2662-2667. The origin of the ovarian tumour line CI-80-13S has been described in Bertoncello et al., 1985, Aust. J. Exp. Biol. Med. Sci. 63 241-243. The origin of the cervical carcinoma cell line HeLa has been described in Maynard et al., 1986, Cancer Res. 46 5009-5093. The subclone HeLa-S1a was derived by stably transfecting HeLa with PAI-2 cDNA described in Schleuning et al., 1987, Mol. Cell. Biol. 7 4564-4567 in the sense orientation under the control of the cyto-megalovirus (CMV) promoter. The stably infected subclone was isolated following G418 selection and expression of the PAI-2 transgene characterised by immunoblot analysis and quantitated by ELISA. All of these cell lines have been used before for carrying out cell survival assays referred to in FIGS. 1-4. Cells were cultured at 37° in 5% CO2 /air in Roswell Park Memorial Institute medium 1640 containing 5% foetal calf serum, 100 μg/ml streptomycin, 100 IU/ml penicillin, 1 mM pyruvate, 50 μM nicotinamide and 3 mM HEPES.
# Cells were seeded in microtitre plates (lowest number for fastest growing cells: 1000 HeLa, 2000 MM96, […] CI-80-13S cells per 6 mm well in 100 μl), normally but not necessarily allowed to attach overnight, then 5 dilutions of the drug were added to duplicate wells. After an overnight incubation to equilibrate the pH, the lids were quickly taped around the edge to prevent evaporation. The plates were incubated for 5-7 days, until the controls were nearly confluent. Cell growth/morphology was scored at each dose visually (inverted microscope). The medium was then replaced by 50 μl fresh medium containing 2 u/Ci/ml [methyl-3H]-thymidine (5 Ci/mmol; Radiochemical Centre, Amersham, Bucks., U.K.) and incubated for 2-4 hr. The cells were washed with PBS (0.1 M NaCl, 50 mM phosphate, pH 7.2), detached with 100 μl of PBS containing 0.2 mg/ml trypsin and 10 mM EDTA, and washed onto a glass fibre GF/a filter mat with water using a cell harvester. Later, wells were checked under the microscope to ensure complete detachment and washout. Radioactivity was determined in an LKB Beta Plate counter and the results plotted as log % control cpm versus dose. The ID50 (dose required to give 50% survival) was interpolated from this survival curve.
# as §4
# The cytotoxicity assay used sulforhodamine B which stains the basic amino acids. Cells (5000 or 2500 for SKOV-3) were seeded into 96 well microtitre plates (Linbro, Flow Laboratories Inc., USA) in 0.1 ml of medium. After an overnight incubation, the metal phosphine compounds were dissolved in 0.9% NaCl or ethanol and diluted with medium, were added at concentrations ranging from 0.005 to 50 μM to quadruplicate wells. After 96 hrs incubation, the medium was removed and cells were fixed in 0.2 ml of cold 10% (w/v) trichloroacetic acid (May & Baker Ltd., Dagenham, England) for 30 mins at 4° C. The plates were washed five times with tap water. […]
# [21] = system: mitochondrial membrane / oxidative phosphorylation; conditions: cited from earlier work
# [22] = system: tumour models in mice; conditions: literature; mice; cited from earlier work
# [23] = system: Beagle dogs; conditions: cited from earlier work
# [24] = attributed to lipophilic cationic properties; cited from earlier work
compound,measurement,setting,value
N.N.[Cl][Pt][Cl] [Cisplatin],IC50,[1],1200 ± 400 nM
same,Rhodamine 123 uptake,[2],Rhodamine 123 uptake increases
same,IC50,[3],260 ± 100 nM
same,IC50,[4],2100 nM
same,IC50,[5],710 ± 200 nM
same,ID37,[6],0.29 ± 0.04 µM
same,ID37,[7],0.83 ± 0.3 µM
same,ID37,[8],4.17 ± 0.5 µM
same,IC50,[9],110 ± 10 nM
same,ID37,[10],0.62 ± 0.08 µM
"CCN(CC)c1ccc2c(-c3ccccc3C(=O)O)c3ccc(=[N+](CC)CC)cc-3oc2c1 [Rhodamine, reference compound]",IC50,[11],1000 nM
same,IC50,[12],1000 nM
same,IC50,[13],3000 nM
same,IC50,[14],900 nM
same,IC50,[15],500 nM
same,ID37,[6],2.73 ± 0.28 µM
same,ID37,[7],0.90 ± 0.03 µM
same,sensitivity of cisplatin resistant cells versus non-resistant cells,[16],the cisplatin resistant cells are more sensitive to Rhodamine than the nonresistant cells
same,ID37,[8],0.105 ± 0.026 µM
same,ID37,[10],0.58 ± 0.08 µM
same,accumulation in mitochondria,[17],accumulate in the mitochondria of most carcinoma derived cells more rapidly than in most untransformed cells
same,partition co-efficient,[18],0.34
[Au+].[Cl-].c1ccc(P(CCP(c2ccccc2)c2ccccc2)c2ccccc2)cc1.c1ccc(P(CCP(c2ccccc2)c2ccccc2)c2ccccc2)cc1 [[Au(dppe)2]Cl],DNA damage,[19],produced DNA-single strand breaks and DNA-protein crosslinks in tumour cells
same,ID37,[6],0.95 ± 0.13 µM
same,degree of selectivity,[20]; Tables 1 and 2,the least selectivity
same,number of cell lines against which cytotoxic,[20]; nine cell-lines tested / all evaluated,cytotoxic to all the cell lines evaluated
same,ID37,[7],0.73 ± 0.15 µM
same,ID37,[8],0.20 ± 0.03 µM
same,effect on mitochondrial function,[21],uncouples oxidative phosphorylation via dissipation of the membrane potential
same,ID37,[10],0.073 ± 0.005 µM
same,antitumour activity,[22],good antitumour activity
same,toxicities in preclinical trials,[23],"severe cardiac, hepatic and vascular toxicities"
same,hepatotoxicity,[24],severe and unacceptable hepatotoxicity
